From patent publication US9238654B2, “Singleton inhibitors of sumoylation enzymes and methods for their use” (CITY OF HOPE, priority 2010, dated 2016)
Like-named read-outs stand apart in the source and are kept apart here.

How the values were obtained:
SUMO E1 or SUMO E2 = target: T1, SUMO E1 or SUMO E2 (Homo sapiens, UniProt Q9UBE0+Q9UBT2); assay: SUMOylation HTS assay, SUMO (AlphaScreen-BSA), SUMOylation of RanGAP1; type: biochemical
T1 sequence (Q9UBE0 1-346): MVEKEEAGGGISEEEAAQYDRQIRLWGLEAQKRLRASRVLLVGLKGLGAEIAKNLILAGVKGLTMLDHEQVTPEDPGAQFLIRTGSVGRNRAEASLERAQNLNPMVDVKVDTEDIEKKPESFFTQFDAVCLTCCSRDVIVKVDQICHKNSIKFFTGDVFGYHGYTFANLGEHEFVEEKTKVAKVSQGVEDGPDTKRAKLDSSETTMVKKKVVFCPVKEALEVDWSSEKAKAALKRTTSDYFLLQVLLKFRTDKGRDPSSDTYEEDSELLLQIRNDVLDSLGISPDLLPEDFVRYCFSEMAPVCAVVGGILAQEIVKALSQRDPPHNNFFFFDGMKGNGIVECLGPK
T1 sequence (Q9UBT2 1-640): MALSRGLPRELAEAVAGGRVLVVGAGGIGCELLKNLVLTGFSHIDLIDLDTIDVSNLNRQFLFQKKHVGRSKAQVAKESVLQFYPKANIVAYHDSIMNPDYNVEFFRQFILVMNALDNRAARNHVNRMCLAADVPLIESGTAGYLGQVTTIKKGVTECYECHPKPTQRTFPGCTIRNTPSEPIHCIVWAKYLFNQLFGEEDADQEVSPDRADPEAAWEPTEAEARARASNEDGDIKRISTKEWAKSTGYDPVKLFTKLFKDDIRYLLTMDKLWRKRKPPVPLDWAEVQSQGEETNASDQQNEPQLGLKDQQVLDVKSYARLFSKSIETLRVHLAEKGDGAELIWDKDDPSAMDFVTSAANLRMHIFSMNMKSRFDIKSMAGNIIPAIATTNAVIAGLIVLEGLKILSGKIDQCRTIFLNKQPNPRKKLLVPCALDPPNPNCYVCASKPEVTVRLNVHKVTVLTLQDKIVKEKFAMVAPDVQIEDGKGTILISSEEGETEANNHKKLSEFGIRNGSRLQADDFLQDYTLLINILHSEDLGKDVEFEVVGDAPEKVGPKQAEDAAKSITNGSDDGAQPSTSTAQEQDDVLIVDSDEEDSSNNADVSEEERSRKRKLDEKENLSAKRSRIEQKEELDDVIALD
Description: (§1) A lead compound was selected, and is identified herein as MLS0437113 (FIG. 3).
(§2) Each singleton analog was analyzed to determine its inhibitory effect on SUMOylation and ubiquitination, tested both in the HTS format and gel-based format (FIG. 4).

SUMO E1 [1] = target: T2, SUMO E1 (Homo sapiens, UniProt Q9UBE0+Q9UBT2); assay: Gel-based assay of SUMO-RanGap1, E1-SUMO and E2~SUMO thioester conjugate formation; type: biochemical; details: for SUMO-RanGap1 and SUMO-E2 Conjugation Inhibition: strength in words; for Inhibitory effect on SUMOylation, comparison within the series: HTS and gel-based format, each inhibitor 10 μM (FIG. 4)
T2 sequence (Q9UBE0 1-346): T1 sequence (Q9UBE0 1-346)
T2 sequence (Q9UBT2 1-640): T1 sequence (Q9UBT2 1-640)
Description: FIG. 4 illustrates a representative assay to determine the efficacy of E1 inhibitors generated from a singleton probe. Stereo-specific effects of this series in inhibiting the SUMO E1. […] Negative and positive controls were reactions in the absence and presence of ATP. […] The compounds that are immediately right to them in the assays, MLS-0437114 and MLS-0437121, are their stereo-isomers, respectively. The stereo chemistry was determined by X-ray crystallography.
as §2
The molecular weight (MW), IC50, strength of SUMO-RanGap1 and SUMO-E2 conjugation inhibition of the SUMO E1 inhibitors derived from the singleton scaffold (see Table 1 above for structures) generated according to the embodiments herein are shown in Table 3 below.

[2] = Stability in Tris buffer, parent remaining by HPLC-MS; type: physicochemical; details: for % Remaining after 60 min in 50 mM Tris (−BSA): without BSA; for % Remaining after 60 min in 50 mM Tris (+BSA): with BSA
Description: Stable compounds in Tris were tested with and without BSA. Amount of parent compound remaining was quantified using HPLC-MS (area under the curve (AUC) method).

ubiquitin E1 = target: T3, ubiquitin E1 (Homo sapiens, UniProt P22314); assay: Poly-ubiquitination assay using ubiquitin, ubiquitin E1, Ubc5 and Apc11; type: biochemical; details: SUMO E1 versus ubiquitin E1, derived from the IC50s of HTS assays
T3 sequence (P22314 1-1058): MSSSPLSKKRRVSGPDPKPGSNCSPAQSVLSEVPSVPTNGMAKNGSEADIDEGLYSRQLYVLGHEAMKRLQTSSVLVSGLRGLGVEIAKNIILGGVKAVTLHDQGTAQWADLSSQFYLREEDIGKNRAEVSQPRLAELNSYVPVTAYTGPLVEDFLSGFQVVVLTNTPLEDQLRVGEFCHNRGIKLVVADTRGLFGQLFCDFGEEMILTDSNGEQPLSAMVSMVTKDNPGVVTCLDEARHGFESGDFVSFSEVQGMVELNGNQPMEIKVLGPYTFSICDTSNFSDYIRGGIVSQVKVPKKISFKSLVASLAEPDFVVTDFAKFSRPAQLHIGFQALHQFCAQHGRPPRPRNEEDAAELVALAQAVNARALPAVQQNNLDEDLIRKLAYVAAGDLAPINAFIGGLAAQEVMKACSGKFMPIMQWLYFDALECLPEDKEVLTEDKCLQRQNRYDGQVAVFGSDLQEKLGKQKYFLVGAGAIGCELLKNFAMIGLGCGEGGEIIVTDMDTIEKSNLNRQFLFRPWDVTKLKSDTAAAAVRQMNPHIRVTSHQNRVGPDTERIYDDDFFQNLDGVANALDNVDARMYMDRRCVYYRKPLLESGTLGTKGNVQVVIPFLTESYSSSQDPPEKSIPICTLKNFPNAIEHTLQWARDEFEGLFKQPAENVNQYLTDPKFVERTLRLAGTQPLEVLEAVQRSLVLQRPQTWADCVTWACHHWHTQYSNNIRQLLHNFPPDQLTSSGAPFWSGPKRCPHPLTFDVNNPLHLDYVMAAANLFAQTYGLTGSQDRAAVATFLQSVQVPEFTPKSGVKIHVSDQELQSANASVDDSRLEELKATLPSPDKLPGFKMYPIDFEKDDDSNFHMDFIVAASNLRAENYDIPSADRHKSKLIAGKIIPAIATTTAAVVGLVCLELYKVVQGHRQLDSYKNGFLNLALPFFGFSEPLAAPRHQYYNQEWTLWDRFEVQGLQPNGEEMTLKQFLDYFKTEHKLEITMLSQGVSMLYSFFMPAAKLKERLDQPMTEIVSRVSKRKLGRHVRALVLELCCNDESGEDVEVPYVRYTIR
Description: as §1, §2

SUMO E1 [3] = target: T2, SUMO E1; assay: Rate of SUMO~E1 product formation with increasing inhibitor concentrations; type: biochemical
Description: Data is analyzed by fitting to a rectangular hyperbolic to extract IC50 (lower left) or the solution to a quadratic equation to determine Ki^app (lower right).
Their inhibitory constants were measured in the reaction to monitor the rate of SUMO˜E1 product formation in the presence of increasing concentrations of inhibitors (FIG. 5). Inhibition studies were performed in both the presence and absence of 0.02% Triton X-100 to ensure against potential promiscuous inhibition by premicelles due to the formation of aggregates. Inhibition data was fit to a rectangular hyperbolic to extract an IC50 (Equation 1). The Ki^app was extracted by fitting the percent inhibition as a function of inhibitor concentration using equations 1 and 2 (FIG. 5) (Spengler et al. 2005). % Inhibition=([I]*Vmax)/([I]+IC50) (Equation 1) v/v0=(1−(([E]0+[I]+Ki^app)−(([E]0+[I]+Ki^app)^2−4([E]0[I]))^1/2)/2[E]0 (Equation 2)

MCF-7 cells = assay: Inhibition of global SUMOylation in cells, Western blot with anti-SUMO antibodies; type: cell-based; details: compound in culture media 8-18 h
Description: Western blots (probed with anti-SUMO2/3 antibodies) of cell lysates from MCF-7 cells treated with the inhibitor. SUMO2/3 modifies many proteins as poly-SUMO chains, and is detected as high molecular weight smears.
In this experiment, the compound was added to cell culture media at the indicated concentrations for 8-18 h. Then SUMOylated proteins were detected using anti-SUMO antibodies.

[4] = tested on: Immortalized human hepatocytes, Fa2N-4 cells; assay: Hepatocyte toxicity, cell viability by cellular ATP levels; type: cell-based; details: concentrations up to 50 μM, 24 hrs
Description: FIG. 10 illustrates that E1 inhibitor MLS-0437113 has low toxicity in a normal liver cell line. Immortalized human hepatocytes, Fa2N-4 cells (XenoTech) were seeded at ˜50-60K cells/well, and incubated with a range of concentrations (0.01-50 μM) 1, in duplicate, for 24 hrs at 37° C., 5% CO2. Cell viability was determined by cellular ATP levels using the Luminescence ATP Detection Assay System (Tecan).

| SMILES | SUMO (AlphaScreen-BSA) IC50 (SUMO E1 or SUMO E2) [µM] | SUMO-RanGap1 and SUMO-E2 Conjugation Inhibition (SUMO E1 [1]) | % Remaining after 60 min in 50 mM Tris (−BSA) [2] [%] | other results |
| --- | --- | --- | --- | --- |
| C=CC[C@H](Nc1ccc(Cl)cc1)C12C=CC(O1)C(C(=O)OC)=C2C(=O)OC (some centres unmarked) [MLS-0437127] | 11.5 | Weak |  |  |
| COC(=O)C1=C(C(=O)OC)C2([C@H](Cc3ccccc3)Nc3ccc(C)cc3)C=CC1O2 (some centres unmarked) [MLS-0437110] | 9.2 | Very Weak |  |  |
| COC(=O)C1=C(C(=O)OC)C2([C@@H](Cc3ccccc3)Nc3ccc(Cl)cc3)C=CC1O2 (mixture of isomers) [MLS-0437120] | 5.2 | Weak | 29 | Inhibitory effect on SUMOylation, comparison within the series (SUMO E1 [1]): more inhibitory than MLS-0437121 |
| COC(=O)C1=C(C(=O)OC)C2(C(Nc3ccccc3)c3ccc(F)cc3)C=C[C@@H]1O2 (some centres unmarked) [MLS-0437320] |  |  | 84 | % Remaining after 60 min in 50 mM Tris (+BSA) [2]: 87%; SUMO/ubiquitin Selectivity (ubiquitin E1): >100 |
| COC(=O)C1=C(C(=O)OC)C2([C@@H](Cc3ccccc3)Nc3ccc(C)cc3)C=CC1O2 (some centres unmarked) [MLS-0437109] | 6.9 | Weak |  |  |
| COC(=O)C1=C(C(=O)OC)C2([C@@H](Cc3ccccc3)Nc3ccc(OC)cc3)C=CC1O2 (some centres unmarked) [MLS-0437118] | 9.5 | Very Weak |  |  |
| COC(=O)C1=C(C(=O)OC)C2([C@@H](Nc3ccccc3)c3ccc(C)cc3)C=C[C@@H]1O2 (stereo in doubt) [MLS-0437317] |  |  | 86 | % Remaining after 60 min in 50 mM Tris (+BSA) [2]: 85%; Stability in Tris buffer, in words [2]: stable; SUMO/ubiquitin Selectivity (ubiquitin E1): >100; Inhibition of SUMO E1, potency in words (SUMO E1 [3]): high potency; Inhibition of global SUMOylation (MCF-7 cells): inhibited global SUMOylation in a dose-dependent manner |
| COC(=O)C1=C(C(=O)OC)C2([C@H](Cc3ccccc3)Nc3ccccc3)C=CC1O2 (mixture of isomers) [MLS-0437114] | 11.7 | Weak |  | Inhibitory effect on SUMOylation, comparison within the series (SUMO E1 [1]): significantly less inhibitory |
| COC(=O)C1=C(C(=O)OC)C2([C@H](Cc3ccccc3)Nc3ccc(Cl)cc3)C=CC1O2 (mixture of isomers) [MLS-0437121] | 9.2 | Very Weak |  |  |
| C=CC[C@@H](Nc1ccccc1)C12C=CC(O1)C(C(=O)OC)=C2C(=O)OC (some centres unmarked) [MLS-0437111] | 3.3 | Strong |  |  |
| CCC[C@H](Nc1ccccc1)C12C=C[C@H](O1)C(C(=O)OC)=C2C(=O)OC (stereo in doubt) [MLS-0437313] |  |  | 48 | % Remaining after 60 min in 50 mM Tris (+BSA) [2]: 89%; SUMO/ubiquitin Selectivity (ubiquitin E1): >100 |
| C=CC[C@@H](Nc1ccc(Cl)cc1)C12C=CC(O1)C(C(=O)OC)=C2C(=O)OC (some centres unmarked) [MLS-0437126] | 12.5 | Weak |  |  |
| COC(=O)C1=C(C(=O)OC)C2(C(Nc3ccccc3)c3ccc(OC(F)(F)F)cc3)C=C[C@@H]1O2 (some centres unmarked) [MLS-0437321] |  |  | 82 | % Remaining after 60 min in 50 mM Tris (+BSA) [2]: 64%; SUMO/ubiquitin Selectivity (ubiquitin E1): >100 |
| COC(=O)C1=C(C(=O)OC)[C@@]2([C@@H](Cc3ccccc3)Nc3ccccc3)C=C[C@@H]1O2 (racemic) [MLS-0437113, Dimethyl 1-(2-Phenyl-1-(phenylamino)ethyl)-7-oxabicyclo[2.2.1]hepta-2,5-diene-2,3-dicarboxylate] | 0.47 | Strong | 0 | Stability in Tris buffer, in words [2]: unstable; Inhibitory effect on SUMOylation, comparison within the series (SUMO E1 [1]): most potent inhibitor in this series; Toxicity in human hepatocytes [4]: low toxicity; Inhibition of SUMO E1, potency in words (SUMO E1 [3]): similarly potent; Inhibition of SUMO E1, potency in words (SUMO E1 [3]; listed as MLS0437113): submicromolar inhibition |
